Four compounds from patent publication US10294202B2, “Pyrrolidinones as herbicides” (FMC Corporation, priority 2013, dated 2019) can be followed below.

Structures are written as SMILES.

The test system of experiment [1] is waterplantain. The experiment in a line: Test F flood (paddy) test. It counts as in vivo, Alisma plantago-aquatica. Particulars: 21 d, scale 0-100. The source says:
(§1) Three plastic pots (ca. 16-cm diameter) per rate were partially filled with sterilized Tama silt loam soil comprising a 35:50:15 ratio of sand, silt and clay and 2.6% organic matter. Separate plantings for each of the three pots were as follows. Seeds from the U.S. of monochoria (Monochoria vaginalis), sedge, umbrella (small-flower umbrella sedge, Cyperus difformis), bulrush, […] bulrush, Scirpus juncoides), and […] (purple […] coccinea), were planted into one 16-cm pot for each rate. Seeds from the U.S. of flatsedge, rice (rice flatsedge, Cyperus iria), sprangletop, Brdd. (bearded sprangletop, Leptochloa fascicularis), one stand of 9 or 10 water seeded rice seedlings (Rice, W.S. Jap, Oryza sativa cv. 'Japonica-[…]' or Rice, W.S. Ind, 'Indica'), and two stands of 3 or 4 seedlings of rice, transplanted (transplanted rice, Oryza sativa cv. 'Japonica-[…]') were planted into one 16-cm pot for each rate. Seeds from the U.S. of barnyardgrass (Echinochloa crus-galli), […] (common […], Alisma plantago-aquatica), and watergrass, late (late watergrass, Echinochloa oryzicola) were planted into one 16-cm pot for each rate. Plantings were sequential so that crop and weed species were at the 2.0 to 2.5-leaf stage at time of treatment. Potted plants were grown in a greenhouse with day/night temperature settings of 30/27° C., and supplemental balanced lighting was provided to maintain a 16-h photoperiod. Test pots were maintained in the greenhouse until test completion. At time of treatment, test pots were flooded to 3 cm above the soil surface, treated by application of test compounds directly to the paddy water, and then maintained at that water depth for the duration of the test. Effects of treatments on rice and weeds were visually evaluated by comparison to untreated controls after 21 d. Plant response ratings, summarized in Table F, are based on a scale of 0 to 100 where 0 is no effect and 100 is complete control. A dash (-) response means no test result.

Experiment [2] relates to waterhemp (AMATA). The experiment in a line: Test H preemergence mixture test (Colby). Particulars: for Plant response rating, Obsd., AMATA: 21 d after treatment, scale 0 to 100; for AMATA Obsd.: applied alone, 21 d, mean of three replicates, scale 0-100. Type of experiment: in vivo, Amaranthus rudis. The source says: Colby's Equation was used to determine the herbicidal effects expected from the mixtures. Colby's Equation (Colby, S. R. “Calculating Synergistic and Antagonistic Responses of Herbicide Combinations,” Weeds, 15(1), pp 20-22 (1967)) calculates the expected additive effect of herbicidal mixtures and for two active ingredients is of the form: Pa+b=Pa+Pb−(PaPb/100)
where • Pa+b is the percentage effect of the mixture expected from additive contribution of the individual components: • Pa is the observed percentage effect of the first active ingredient at the same use rate as in the mixture, and • Pb is the observed percentage effect of the second active ingredient at the same use rate as in the mixture. In the following Tables, rates are shown in grams of active ingredient per hectare (g a.i./ha); “Obsd.” is the observed effect. “Exp.” is the expected effect calculated from Colby's Equation.
This test evaluated the effect of mixtures of compound 80 with several commercial herbicides on four plant species. Seeds of plant species selected from corn (ZEAMD, Zea mays), soybean (GLXMA, Glycine max), waterhemp (common waterhemp, AMATA, Amaranthus rudis), and giant foxtail (SETFA, Setaria faberii) were planted into a silt loam soil and treated preemergence with test chemicals formulated in a non-phytotoxic solvent mixture which included a surfactant and applied using a volume of 281 L/ha. Each treatment was replicated three times. Treated plants and controls were maintained in a greenhouse using supplemental lighting to maintain a photoperiod of about 16 h; daytime and nighttime temperatures were about 24-30° C. and 19-21° C., respectively. Nutrients were applied using a balanced fertilizer applied through the watering system. At 21 d after treatment, all species were compared to controls and visually evaluated. Plant response ratings were calculated as the means of the three replicates, are summarized in Tables H1 through H5, and are based on a scale of 0 to 100 where 0 is no effect and 100 is complete control. A dash (-) response means no test result. The Expected (Exp.) results were calculated using Colby's Equation as described for Test G above.

For experiment [3], the system named is ducksalad (HETLI). As to the kind of experiment: Test G paddy mixture test (Colby). Particulars: applied alone, 14 d; for HETLI Obsd.: scale 0-100; for HETLI Obsd. plant response rating (scale 0 to 100): flooded. It counts as in vivo, Heteranthera limosa. Summed up: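 Weeds sown in Tama soil tubs; barnyardgrass and transplanted japonica rice grown in plug flats. Treated at 2.0–2.5 leaf stage; visual rating 0–100 versus controls after 14 d in greenhouse. Expected mixture effect calculated with Colby's equation; rates in g a.i. per area.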

Experiment [4] concerns Rice, Water Seeded. As to the kind of experiment: Test F flood (paddy) test. Type of experiment: in vivo, Oryza sativa. Particulars: 62 g ai/ha, 21 d, scale 0-100.
Text: as §1, with “Potted plants were grown in a greenhouse with day/night temperature settings of 30/27° C., and supplemental balanced lighting was provided to maintain a 16-h photoperiod. Test pots were maintained in the greenhouse until test completion. At time of treatment, test pots were flooded to 3 cm above the soil surface, treated by application of test compounds directly to the paddy water, and then maintained at that water depth for the duration of the test.” left out, “Plant response ratings, summarized in Table F, are based on a scale of 0 to 100 where 0 is no effect and 100 is complete control. A dash (-) response means no test result.” left out

Take `O=C1NCCC1C(=O)N(c1ccc(F)c(F)c1)c1ccccc1F` (centres unmarked) [Compound 5, N-(3,4-difluorophenyl)-N-(2-fluorophenyl)-2-oxo-3-pyrrolidinecarboxamide]: the “Plant response rating, Waterplantain” value in experiment [1] (125 g ai/ha) is on record as 55; in experiment [1] (250 g ai/ha) it was 70; in experiment [1] (500 g ai/ha), 80; in experiment [1] (1000 g ai/ha), 85; in experiment [1] (2000 g ai/ha), 90.
As to `O=C1NCC(c2ccc(C(F)(F)F)cc2)C1C(=O)Nc1cccc(F)c1F` (centres unmarked) [Compound 80, N-(2,3-difluorophenyl)-2-oxo-4-[4-(trifluoromethyl)phenyl]-3-pyrrolidinecarboxamide], the “Plant response rating, Obsd., AMATA” value in experiment [2] (Cmpd 80 alone 62 g a.i./ha) was determined as 0; in experiment [2] (Cmpd 80 alone 125 g a.i./ha), 33. Moreover, the “AMATA Obsd.” value in experiment [2] (62 g a.i./ha) is given as 0; in experiment [2] (125 g a.i./ha), 33.
Turning to `O=C1NC[C@H](c2cccc(C(F)(F)F)c2)[C@H]1C(=O)Nc1ccccc1F` [Compound 204, (3R,4S)—N-(2-fluorophenyl)-2-oxo-4-[3-(trifluoromethyl)phenyl]-3-pyrrolidinecarboxamide], the “HETLI Obsd.” value in experiment [3] (125 g a.i./ha) and in experiment [3] (500 g a.i./ha) was 100 throughout. Further, the “HETLI Obsd. plant response rating (scale 0 to 100)” value in experiment [3] (125 g a.i./ha) and in experiment [3] (500 g a.i./ha) was 100 each time.
For the compound `CN1CC(c2ccc(F)c(F)c2)C(C(=O)Nc2cccc(F)c2F)C1=O` (centres unmarked) [Compound 303], the “Plant response rating, Rice, Water Seeded” value in experiment [4] is recorded as 0.
